Tests used:
[1] = system: HCV genotype 1a (strain H77) subgenomic replicon with NS3 resistance mutation R155K in Huh-7 cells; assay: HCV replicon RNA replication assay (NS3 protease variants), genotype 1a R155K; format: cell-based; conditions: Hepatitis C virus, Huh-7, 72 h, read-out: R155K 1a EC50 (nM)
[2] = system: HCV genotype 1b (Con-1) subgenomic replicon with NS3 resistance mutation D168V in Huh-7 cells; assay: HCV replicon RNA replication assay (NS3 protease variants), genotype 1b D168V; format: cell-based; conditions: Hepatitis C virus, Huh-7, 72 h, read-out: D168V 1b EC50 (nM)

Row | SMILES | EC50 [1] [nM] | EC50 [2] [nM]
1 | COc1ccc2c(O[C@@H]3C[C@H]4C(=O)N[C@]5(C(=O)NS(=O)(=O)C6CC6)C[C@H]5/C=C\CCCCC[C@H](NC(=O)c5ccn(C)n5)C(=O)N4C3)cc(OC(C)C)nc2c1C [Compound 1003, (2R,6S,12Z,13aS,14aR,16aS)-N-(cyclopropylsulfonyl)-2-{[7-methoxy-8-methyl-2-(propan-2-yloxy)quinolin-4-yl]oxy}-6-{[(1-methyl-1H-pyrazol-3-yl)carbonyl]amino}-5,16-dioxo-1,2,3,6,7,8,9,10,11,13a,14,15,16,16a-tetradecahydrocyclopropa[e]pyrrolo[1,2-a][1,4]diazacyclopentadecine-14a(5H)-carboxamide] | 4.3 | 0.29
2 | CCOc1cc(O[C@@H]2C[C@H]3C(=O)N[C@]4(C(=O)NS(=O)(=O)C5(C)CC5)C[C@H]4/C=C\CCCCC[C@H](NC(=O)N4CCC4)C(=O)N3C2)c2ccc(OC)c(C)c2n1 [Compound 2015, (2R,6S,12Z,13aS,14aR,16aS)-6-[(azetidin-1-ylcarbonyl)amino]-2-[(2-ethoxy-7-methoxy-8-methylquinolin-4-yl)oxy]-N-[(1-methylcyclopropyl)sulfonyl]-5,16-dioxo-1,2,3,6,7,8,9,10,11,13a,14,15,16,16a-tetradecahydrocyclopropa[e]pyrrolo[1,2-a][1,4]diazacyclopentadecine-14a(5H)-carboxamide] | 5.4 | 0.67
3 | COc1c(Cl)ccc2c(O[C@@H]3C[C@H]4C(=O)N[C@]5(C(=O)NS(=O)(=O)C6(C)CC6)C[C@H]5/C=C\CCCCC[C@H](NC(=O)c5ccn(C)n5)C(=O)N4C3)cc(OC(C)C)nc12 [Compound 1010, (2R,6S,12Z,13aS,14aR,16aS)-2-{[7-chloro-8-methoxy-2-(propan-2-yloxy)quinolin-4-yl]oxy}-N-[(1-methylcyclopropyl)sulfonyl]-6-{[(1-methyl-1H-pyrazol-3-yl)carbonyl]amino}-5,16-dioxo-1,2,3,6,7,8,9,10,11,13a,14,15,16,16a-tetradecahydrocyclopropa[e]pyrrolo[1,2-a][1,4]diazacyclopentadecine-14a(5H)-carboxamide] | 7 | 0.33
4 | CCn1ccc(C(=O)N[C@H]2CCCCC/C=C\[C@@H]3C[C@@]3(C(=O)NS(=O)(=O)C3CC3)NC(=O)[C@@H]3C[C@@H](Oc4cc(OC(C)C)nc5c(C)c(OC)ccc45)CN3C2=O)n1 [Compound 1024, (2R,6S,12Z,13aS,14aR,16aS)-N-(cyclopropylsulfonyl)-6-{[(1-ethyl-1H-pyrazol-3-yl)carbonyl]amino}-2-{[7-methoxy-8-methyl-2-(propan-2-yloxy)quinolin-4-yl]oxy}-5,16-dioxo-1,2,3,6,7,8,9,10,11,13a,14,15,16,16a-tetradecahydrocyclopropa[e]pyrrolo[1,2-a][1,4]diazacyclopentadecine-14a(5H)-carboxamide] | 3.9 | 0.31
5 | CCOc1ccc2c(O[C@@H]3C[C@H]4C(=O)N[C@]5(C(=O)NS(=O)(=O)C6(C)CC6)C[C@H]5/C=C\CCCCC[C@H](NC(=O)c5ccn(C)n5)C(=O)N4C3)cc(OC(C)C)nc2c1Cl [Compound 1001, (2R,6S,12Z,13aS,14aR,16aS)-2-{[8-chloro-7-ethoxy-2-(propan-2-yloxy)quinolin-4-yl]oxy}-N-[(1-methylcyclopropyl)sulfonyl]-6-{[(1-methyl-1H-pyrazol-3-yl)carbonyl]amino}-5,16-dioxo-1,2,3,6,7,8,9,10,11,13a,14,15,16,16a-tetradecahydrocyclopropa[e]pyrrolo[1,2-a][1,4]diazacyclopentadecine-14a(5H)-carboxamide] | 2.6 | 0.33
6 | COc1ccc2c(O[C@@H]3C[C@H]4C(=O)N[C@]5(C(=O)NS(=O)(=O)C6(C)CC6)C[C@H]5/C=C\CCCCC[C@H](NC(=O)N5CC(C)(O)C5)C(=O)N4C3)cc(OC(C)C)nc2c1C [Compound 2013, (2R,6S,12Z,13aS,14aR,16aS)-6-{[(3-hydroxy-3-methylazetidin-1-yl)carbonyl]amino}-2-{[7-methoxy-8-methyl-2-(propan-2-yloxy)quinolin-4-yl]oxy}-N-[(1-methylcyclopropyl)sulfonyl]-5,16-dioxo-1,2,3,6,7,8,9,10,11,13a,14,15,16,16a-tetradecahydrocyclopropa[e]pyrrolo[1,2-a][1,4]diazacyclopentadecine-14a(5H)-carboxamide] | 6.5 | 3.3
7 | Cc1ccc(C(=O)N[C@H]2CCCCC/C=C\[C@@H]3C[C@@]3(C(=O)NS(=O)(=O)C3(C)CC3)NC(=O)[C@@H]3C[C@@H](Oc4cc(OC(C)C)nc5c(C)c(O)ccc45)CN3C2=O)s1 [Compound 1033, (2R,6S,12Z,13aS,14aR,16aS)-2-{[7-hydroxy-8-methyl-2-(propan-2-yloxy)quinolin-4-yl]oxy}-N-[(1-methylcyclopropyl)sulfonyl]-6-{[(5-methylthiophen-2-yl)carbonyl]amino}-5,16-dioxo-1,2,3,6,7,8,9,10,11,13a,14,15,16,16a-tetradecahydrocyclopropa[e]pyrrolo[1,2-a][1,4]diazacyclopentadecine-14a(5H)-carboxamide] | 0.77 | 0.58
8 | CCOc1cc(O[C@@H]2C[C@H]3C(=O)N[C@]4(C(=O)NS(=O)(=O)C5CC5)C[C@H]4/C=C\CCCCC[C@H](NC(=O)c4ccc(C)s4)C(=O)N3C2)c2ccc(OC)c(Br)c2n1 [Compound 1025, (2R,6S,12Z,13aS,14aR,16aS)-2-[(8-bromo-2-ethoxy-7-methoxyquinolin-4-yl)oxy]-N-(cyclopropylsulfonyl)-6-{[(5-methylthiophen-2-yl)carbonyl]amino}-5,16-dioxo-1,2,3,6,7,8,9,10,11,13a,14,15,16,16a-tetradecahydrocyclopropa[e]pyrrolo[1,2-a][1,4]diazacyclopentadecine-14a(5H)-carboxamide] | 4.1 | 0.32
9 | COc1ccc2c(O[C@@H]3C[C@H]4C(=O)N[C@]5(C(=O)NS(=O)(=O)C6(C)CC6)C[C@H]5/C=C\CCCCC[C@H](NC(=O)N(C)C)C(=O)N4C3)cc(OC3CC3)nc2c1C [Compound 2012, (2R,6S,12Z,13aS,14aR,16aS)-2-{[2-(cyclopropyloxy)-7-methoxy-8-methylquinolin-4-yl]oxy}-6-[(dimethylcarbamoyl)amino]-N-[(1-methylcyclopropyl)sulfonyl]-5,16-dioxo-1,2,3,6,7,8,9,10,11,13a,14,15,16,16a-tetradecahydrocyclopropa[e]pyrrolo[1,2-a][1,4]diazacyclopentadecine-14a(5H)-carboxamide] | 9.9 | 1.8
10 | COc1ccc2c(O[C@@H]3C[C@H]4C(=O)N[C@]5(C(=O)NS(=O)(=O)C6(C)CC6)C[C@H]5/C=C\CCCCC[C@H](NC(=O)c5cc[nH]n5)C(=O)N4C3)cc(OC(C)C)nc2c1C [Compound 1009, (2R,6S,12Z,13aS,14aR,16aS)-2-{[7-methoxy-8-methyl-2-(propan-2-yloxy)quinolin-4-yl]oxy}-N-[(1-methylcyclopropyl)sulfonyl]-5,16-dioxo-6-[(1H-pyrazol-3-ylcarbonyl)amino]-1,2,3,6,7,8,9,10,11,13a,14,15,16,16a-tetradecahydrocyclopropa[e]pyrrolo[1,2-a][1,4]diazacyclopentadecine-14a(5H)-carboxamide] | 1.9 | 0.49
11 | Cc1c(F)ccc2c(O[C@@H]3C[C@H]4C(=O)N[C@]5(C(=O)NS(=O)(=O)C6(C)CC6)C[C@H]5/C=C\CCCCC[C@H](NC(=O)N(C)C)C(=O)N4C3)cc(OC(C)C)nc12 [Compound 2018, (2R,6S,12Z,13aS,14aR,16aS)-6-[(dimethylcarbamoyl)amino]-2-{[7-fluoro-8-methyl-2-(propan-2-yloxy)quinolin-4-yl]oxy}-N-[(1-methylcyclopropyl)sulfonyl]-5,16-dioxo-1,2,3,6,7,8,9,10,11,13a,14,15,16,16a-tetradecahydrocyclopropa[e]pyrrolo[1,2-a][1,4]diazacyclopentadecine-14a(5H)-carboxamide] | 5.7 | 1.2
12 | COc1ccc2c(O[C@@H]3C[C@H]4C(=O)N[C@]5(C(=O)NS(=O)(=O)C6CC6)C[C@H]5/C=C\CCCCC[C@H](NC(=O)N5CC(C)(C)C5)C(=O)N4C3)cc(OC(C)C)nc2c1C [Compound 2011, (2R,6S,12Z,13aS,14aR,16aS)-N-(cyclopropylsulfonyl)-6-{[(3,3-dimethylazetidin-1-yl)carbonyl]amino}-2-{[7-methoxy-8-methyl-2-(propan-2-yloxy)quinolin-4-yl]oxy}-5,16-dioxo-1,2,3,6,7,8,9,10,11,13a,14,15,16,16a-tetradecahydrocyclopropa[e]pyrrolo[1,2-a][1,4]diazacyclopentadecine-14a(5H)-carboxamide] | 6.1 | 3.9
13 | COc1ccc2c(O[C@@H]3C[C@H]4C(=O)N[C@]5(C(=O)NS(=O)(=O)C6(C)CC6)C[C@H]5/C=C\CCCCC[C@H](NC(=O)N5CCC5)C(=O)N4C3)cc(OC(C)C)nc2c1C [Compound 2001, (2R,6S,12Z,13aS,14aR,16aS)-6-[(azetidin-1-ylcarbonyl)amino]-2-{[7-methoxy-8-methyl-2-(propan-2-yloxy)quinolin-4-yl]oxy}-N-[(1-methylcyclopropyl)sulfonyl]-5,16-dioxo-1,2,3,6,7,8,9,10,11,13a,14,15,16,16a-tetradecahydrocyclopropa[e]pyrrolo[1,2-a][1,4]diazacyclopentadecine-14a(5H)-carboxamide] | 2.3 | 0.48
14 | CCOc1cc(O[C@@H]2C[C@H]3C(=O)N[C@]4(C(=O)NS(=O)(=O)C5(C)CC5)C[C@H]4/C=C\CCCCC[C@H](NC(=O)N(C)C)C(=O)N3C2)c2ccc(OC)c(C)c2n1 [Compound 2006, (2R,6S,12Z,13aS,14aR,16aS)-6-[(dimethylcarbamoyl)amino]-2-[(2-ethoxy-7-methoxy-8-methylquinolin-4-yl)oxy]-N-[(1-methylcyclopropyl)sulfonyl]-5,16-dioxo-1,2,3,6,7,8,9,10,11,13a,14,15,16,16a-tetradecahydrocyclopropa[e]pyrrolo[1,2-a][1,4]diazacyclopentadecine-14a(5H)-carboxamide] | 9.9 | 2.1

— patent US20110294778A1, “HEPATITIS C INHIBITOR COMPOUNDS” (priority 2009, published 2011)
